Data: patent US20100184704A1, “USE OF THE PEPTIDE GLY-ARG-GLY-ASP-ASN-PRO AS A THERAPEUTIC AGENT” (priority 2007, published 2010)
Where a SMILES comes first, the peptide text is derived from it.

How the values were obtained:
HepG2-2.2.15 cells = test: Cytotoxicity in the HBV assay (dye uptake cell viability); type: cell-based; conditions: peptide 10 micrograms per ml
HIV-1 = HIV-1 antiviral assay (CPE reduction, MTS readout) in CEM-SS cells; type: cell-based; conditions: peptide 10 micrograms per ml, strain HIV-1111B, 6 days post-infection
CEM-SS cells = test: Cytotoxicity in the HIV-1 assay (MTS cell viability); conditions: CEM-SS cells, HIV-1 assay; peptide 10 micrograms per ml; MTS
[1] = test system: MRC-5 cells (human embryonal lung fibroblasts); conditions: 6 days
HCMV strain AD169 = test: HCMV plaque reduction assay in MRC-5 cells; conditions: HCMV AD169 in MRC-5 cells; peptide 10 micrograms per ml; 7-10 days
[2] = Cytotoxicity in the HBV assay (dye uptake cell viability); type: cell-based; conditions: human, HepG2-2.2.15 cells (stable line containing HBV ayw genome), peptide 10 micrograms per ml
[3] = test system: Methicillin Resistant Staphylococcus Aureus (MRSA); test: Methicillin resistant Staphylococcus aureus (MRSA) growth inhibition assay; type: cell-based; conditions: peptide 10 micrograms per ml, visual read, scored positive/negative (complete inhibition of macroscopic growth)
Pseudomonas aeruginosa = Pseudomonas aeruginosa growth inhibition assay; type: cell-based; conditions: peptide 10 micrograms per ml, visual read, scored positive/negative
Streptococcus pneumoniae = Streptococcus pneumoniae growth inhibition assay; type: cell-based; conditions: peptide 10 micrograms per ml, visual read, scored positive/negative
From the text: Results from Streptococcus pneumoniae assay:

[4] = Cytotoxicity in the HIV-1 assay (MTS cell viability); conditions: human, CEM-SS cells (uninfected, cells plus peptide only)
[5] = Cytotoxicity in the HCMV assay (CellTiter 96 cell viability); conditions: human, MRC-5 cells (embryonal lung fibroblasts)

Nc1ccn([C@@H]2CS[C@H](CO)O2)c(=O)n1 [3TC, Lamivudine]
% Cell viability (HepG2-2.2.15 cells): 95.8%

Cc1cn([C@H]2C[C@H](N=[N+]=[N-])[C@@H](CO)O2)c(=O)[nH]c1=O [AZT]
% CPE reduction in HIV-1 infected CEM-SS cells (HIV-1): 99%
% Cell viability (CEM-SS cells): 97%

Nc1nc(O)c2ncn(COC(CO)CO)c2n1 [Ganciclovir]
% Cell viability [1]: 100%
% plaque reduction (HCMV strain AD169): 100%

N=C(N)NCCC[C@H](NC(=O)CN)C(=O)NCC(=O)N[C@@H](CC(=O)O)C(=O)N[C@@H](CC(N)=O)C(=O)N1CCC[C@H]1C(=O)O [Gly-Arg-Gly-Asp-Asn-Pro, Gly-Arg-Gly-Asp-Asn-Pro-OH] (H-GRGDNP-OH)
viability at 144 h, 10 micrograms per ml [2]: 95.2%
% inhibition [3]: 0.0%
% inhibition (Pseudomonas aeruginosa): 0.0%
% inhibition (Streptococcus pneumoniae): 100.0%
viability at 10 micrograms per ml [4]: 100%
viability at 144 h [5]: 100%

CC(C)(C)NC(=O)[C@@H]1CN(Cc2cccnc2)CCN1C[C@@H](O)C[C@@H](Cc1ccccc1)C(=O)N[C@H]1c2ccccc2C[C@H]1O [Indinavir, indinavir]
% CPE reduction in HIV-1 infected CEM-SS cells (HIV-1): 100%
